The values that follow come from patent US9193708B2, “Non-flushing niacin analogues, and methods of use thereof” (Trustees of Tufts College, priority 2006, dated 2015).

SMILES strings stand for the structures.

One test deals with THP-1 macrophages. Nature of the test: PGD2 release by THP-1 macrophages, proxy for flush inducing activity. As to conditions: compared with niacin. The test is classed as cell-based. Here is the method:
THP-1 cells were grown in RPMI complete media • 2×10^6 cells/well in 24 well flask were seeded in serum free media containing […] of PMA. Cells were allowed to differentiate into macrophages for 12 hours • The media was replaced with complete RPMI media and incubation continued for 5 hours • After incubation, media was aspirated and cells were treated with niacin and niacin analogs in 1 mL of serum free RPMI media. • Incubated for 30 min. […] of media was collected, PGD2 secreted was derivitized into stable MOX derivative. • PGD2 in the sample was assayed by using PGD2 assay kit from Cayman chemicals. Incorporation By Reference

The next test concerns Hep-G2 cells. Nature of the test: HDL uptake by Hep-G2 cells (125I-labelled HDL), proxy for HDL-raising activity. The test is classed as cell-based. As to conditions: compared with niacin. On the procedure:
• Split HepG2 cells in 24 well plates 2˜3 days prior to niacin treatment, 0.5 mL complete DMEM media is added per well • Cells were pre-incubated with niacin (1 mM) for 24˜48 h • Wash HepG2 cells 3 times with PBS • Incubate HepG2 cells in […] medium C(DMEM containing 5 mg/mL fatty acid free BSA), containing ^125I-labelled HDL ([…] with specificity ofo 300-500 cpm/ng HDL protein. For 16 h • Aspirate the media and wash the cells with 0.5 mL of 0.1 mg/mL BSA-PBS twice, and with PBS twice • Cells were digested in […] of 1 N NaOH at room temperature overnight • […] of cell lysate was used for gamma-counting • […] of cell lysate was used for protein assay by BCA method • HDL uptake activity is expressed as “cpm of ^125I-HDL uptake/mg of cell protein.

For test [1] the following is noted: humans, daily oral doses of 2-3 g; cited from earlier work.

For the molecule `O=C(O)C/C=C/c1cccnc1` [Compound 2035, 4-pyridin-3-yl-but-3-enoic acid], the “induction of PGD2 release / flush inducing activity relative to niacin” value with THP-1 macrophages is listed as “very much less ability to induce PDG2 release”. For the same molecule, the “reduction of HDL uptake / HDL-raising activity relative to niacin” value in the test with Hep-G2 cells is reported as “essentially as well as niacin”.

`O=C(O)c1cccnc1` [niacin]: the “effect on Lp(a)” value in test [1] is given as “reduce Lp(a)”.
